Measured values: patent US5079265A, “Composition and methods for providing optimum bioavailability of the active ingredient 2-hydroxy-5-methyllaurophenoxime (HMLO)” (VEB Fahlberg-List Chemische und pharmazeutische Fabriken, priority 1989, dated 1992)
Converted amounts (≈) assume the structure as drawn.

Legend:
[1] = In vivo absorption of HMLO active ingredient by rabbits after oral administration as a function of the auxiliaries used; settings: 12 mg/kg
Excerpt: In Vivo Absorption of HMLO Active Ingredient by the Rabbits After Oral Administration as a Function of the Auxiliaries Used.

[2] = Effect of different auxiliaries on the solubility of HMLO active ingredient in water at 293° K; assay type: physicochemical; settings: for solubility: water, 293° K
Experimental: Effect of Different Auxiliaries on the Solubility of HMLO Active Ingredient in Water at 293° K.

[3] = cited from earlier work
[4] = Absorption of HMLO in vitro and in vivo in the presence of bile acids; settings: compared with pure active ingredient and known preparations
Excerpt: This improvement is observed also in comparison with the oily preparation, although the same mechanism for affecting the absorption obviously forms the basis for this preparation.

Absorption ([1]; without auxiliaries): not absorbed to a measurable extent
Solubility in water ([2]; pure HMLO, no auxiliary): insoluble
solubility ([2]; auxiliary Tween (R) 80 0.75%): 130 µg/mL (≈ 426 µM)
solubility ([2]; auxiliary benzalkonium bromide 1.00%): 24 µg/mL (≈ 78.6 µM)
solubility ([2]; auxiliary polyethylene glycol 6500 10.00%): 1 µg/mL (≈ 3.27 µM)
solubility ([2]; auxiliary propylene glycol 1.00%): 2.3 µg/mL (≈ 7.53 µM)
solubility ([2]; auxiliary sodium desoxycholate 0.75%): 2750 µg/mL (≈ 9000 µM)
SMILES: CCCCCCCCCCCC(=NO)c1cc(C)ccc1O [HMLO, 2-hydroxy-5-methyllaurophenoxime]
Absorption ([1]; bile acids as auxiliary, compared with oil): distinctly exceeded by the use of bile acids
Absorption ([1]; oil as auxiliary): clearly affected by the use of oil as auxiliary
Side effects on long-term treatment ([3]; oily preparation): occurrence of diarrhea
Bioavailability ([3]; solutions and emulsions containing oils): the bioavailability can be increased
Absorption [4]: improved clearly in vitro and in vivo in the presence of bile acids
